US20240109864A1, “SUBSTITUTED PYRAZOLYL PIPERIDINE CARBOXYLIC ACIDS” (BAYER AKTIENGESELLSCHAFT, priority 2020, published 2024)
Where a name gives a salt, the structure may show the parent alone.

Molecular target: T1, recombinant guanylate cyclase reporter cell line (Rattus norvegicus, UniProt P20595)
T1 construct: expressed in transfected cells
T1 sequence (P20595 1-619): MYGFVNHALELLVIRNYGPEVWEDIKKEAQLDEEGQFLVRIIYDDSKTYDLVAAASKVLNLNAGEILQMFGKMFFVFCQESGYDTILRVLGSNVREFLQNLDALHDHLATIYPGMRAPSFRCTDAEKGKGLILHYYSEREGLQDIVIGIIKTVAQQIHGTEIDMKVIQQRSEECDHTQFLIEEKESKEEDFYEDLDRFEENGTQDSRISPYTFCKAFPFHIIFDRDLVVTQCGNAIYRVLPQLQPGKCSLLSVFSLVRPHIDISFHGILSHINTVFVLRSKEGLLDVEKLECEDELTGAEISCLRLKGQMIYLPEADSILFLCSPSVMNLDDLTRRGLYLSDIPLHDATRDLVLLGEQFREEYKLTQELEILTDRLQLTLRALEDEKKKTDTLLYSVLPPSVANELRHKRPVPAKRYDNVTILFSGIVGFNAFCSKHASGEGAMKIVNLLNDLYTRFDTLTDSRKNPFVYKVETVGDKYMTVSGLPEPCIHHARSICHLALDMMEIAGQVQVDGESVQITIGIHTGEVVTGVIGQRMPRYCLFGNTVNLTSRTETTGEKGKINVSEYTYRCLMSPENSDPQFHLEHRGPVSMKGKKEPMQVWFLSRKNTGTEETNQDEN
T1 sequence (P19686 1-690 partner): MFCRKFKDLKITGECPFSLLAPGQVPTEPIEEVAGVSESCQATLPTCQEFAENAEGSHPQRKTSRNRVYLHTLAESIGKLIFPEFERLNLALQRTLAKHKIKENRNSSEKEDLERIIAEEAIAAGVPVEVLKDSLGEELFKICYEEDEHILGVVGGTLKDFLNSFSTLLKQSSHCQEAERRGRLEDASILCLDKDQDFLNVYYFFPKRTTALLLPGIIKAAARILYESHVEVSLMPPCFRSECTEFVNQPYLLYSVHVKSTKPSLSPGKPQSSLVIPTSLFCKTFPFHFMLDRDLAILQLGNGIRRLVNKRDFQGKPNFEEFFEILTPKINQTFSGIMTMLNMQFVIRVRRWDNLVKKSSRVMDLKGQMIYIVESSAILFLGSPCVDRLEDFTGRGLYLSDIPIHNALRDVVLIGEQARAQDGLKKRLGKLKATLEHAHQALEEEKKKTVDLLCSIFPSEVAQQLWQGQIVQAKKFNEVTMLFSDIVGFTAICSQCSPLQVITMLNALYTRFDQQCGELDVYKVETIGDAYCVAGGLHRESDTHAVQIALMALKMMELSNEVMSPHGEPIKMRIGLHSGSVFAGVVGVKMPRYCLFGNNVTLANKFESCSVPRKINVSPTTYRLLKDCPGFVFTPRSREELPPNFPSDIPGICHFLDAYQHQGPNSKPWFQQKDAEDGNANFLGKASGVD
Experiment: Effect on a recombinant guanylate cyclase reporter cell line
Assay type: cell-based
Conditions: in some cases mean values from individual determinations; for MEC: MEC = minimum effective concentration; for EC50: half maximal effective concentration
Procedure: The cellular activity of the compounds according to the invention was determined using a recombinant guanylate cyclase reporter cell line, as described in F. Wunder et al., Anal. Biochem. 339, 104-112 (2005).

| Compound | MEC [nM] | EC50 [nM] | MEC (hydrochloride) [nM] |
| --- | --- | --- | --- |
| O=C(O)c1cnn(C2CCCN(c3cc(Cl)ccc3-c3ccc(N4CCN(CC5CC(F)(F)C5)CC4)cc3)C2)c1C(F)(F)F (single isomer, unassigned) [Example 20, 1-[1-[5-Chloro-2-[4-[4-[(3,3-difluorocyclobutyl)methyl]piperazin-1-yl]phenyl]phenyl]-3-piperidyl]-5-(trifluoromethyl)pyrazole-4-carboxylic acid hydrochloride] | – | 3.6 | 1.0 |
| O=C(O)c1cnn(C2CCCN(c3cc(Cl)ccc3-c3ccc(N4CCN(CC5CC(F)C5)CC4)cc3)C2)c1C(F)(F)F (single isomer, unassigned) [Example 22, 1-[1-[5-Chloro-2-[4-[4-[(3-fluorocyclobutyl)methyl]piperazin-1-yl]phenyl]phenyl]-3-piperidyl]-5-(trifluoromethyl)pyrazole-4-carboxylic acid hydrochloride] | 2.0 | 11.4 | – |
| O=C(O)c1cnn(C2CCCN(c3cc(Cl)ccc3-c3ccc(N4CCN(CC5(F)CCC5)CC4)cc3)C2)c1C(F)(F)F (single isomer, unassigned) [Example 23, 1-[1-[5-Chloro-2-[4-[4-[(1-fluorocyclobutyl)methyl]piperazin-1-yl]phenyl]phenyl]-3-piperidyl]-5-(trifluoromethyl)pyrazole-4-carboxylic acid hydrochloride] | 3.0 | 27.5 | – |
| O=C(O)c1cnn(C2CCCN(c3cc(Cl)ccc3-c3ccc(N4CCN(CC56CC(F)(C5)C6)CC4)cc3)C2)c1C(F)(F)F (single isomer, unassigned) [Example 24, 1-[1-[5-Chloro-2-[4-[4-[(3-fluoro-1-bicyclo[1.1.1]pentanyl)methyl]piperazin-1-yl]phenyl]phenyl]-3-piperidyl]-5-(trifluoromethyl)pyrazole-4-carboxylic acid hydrochloride] | 3.0 | 12.7 | – |
| O=C(O)c1cnn(C2CCCN(c3cc(Cl)ccc3-c3ccc(N4CCN(CC5CC5F)CC4)cc3)C2)c1C(F)(F)F (single isomer, unassigned) [Example 25, 1-[1-[5-Chloro-2-[4-[4-[[2-fluorocyclopropyl]methyl]piperazin-1-yl]phenyl]phenyl]-3-piperidyl]-5-(trifluoromethyl)pyrazole-4-carboxylic acid hydrochloride] | – | 22 | 10.0 |
| O=C(O)c1cnn(C2CCCN(c3cc(Cl)ccc3-c3ccc(N4CCN(CC5CC5F)CC4)cc3)C2)c1C(F)(F)F (single isomer, unassigned) [Example 26, 1-[1-[5-Chloro-2-[4-[4-[[2-trans-fluorocyclopropyl]methyl]piperazin-1-yl]phenyl]phenyl]-3-piperidyl]-5-(trifluoromethyl)pyrazole-4-carboxylic acid hydrochloride] | – | 5.2 | 1.0 |
| O=C(O)c1cnn(C2CCCN(c3cc(Cl)ccc3-c3ccc(N4CCN(CC5C[C@@H]5F)CC4)cc3)C2)c1C(F)(F)F (single isomer, unassigned) [Example 27, 1-[1-[5-Chloro-2-[4-[4-[[2-fluorocyclopropyl]methyl]piperazin-1-yl]phenyl]phenyl]-3-piperidyl]-5-(trifluoromethyl)pyrazole-4-carboxylic acid hydrochloride] | 3.0 | 15 | – |
| O=C(O)c1cnn(C2CCCN(c3cc(Cl)ccc3-c3ccc(N4CCN(C[C@@H]5C[C@@H]5F)CC4)cc3)C2)c1C(F)(F)F (single isomer, unassigned) [Example 28, hydrochloride] | – | 5.5 | 3.0 |
| O=C(O)c1cnn(C2CCCN(c3cc(Cl)ccc3-c3ccc(N4CCN(C[C@H]5C[C@H]5F)CC4)cc3)C2)c1C(F)(F)F (single isomer, unassigned) [Example 29, hydrochloride] | 0.3 | 6.9 | – |
| O=C(O)c1cnn(C2CCCN(c3cc(Cl)ccc3-c3ccc(N4CCN(CC5(C(F)(F)F)CC5)CC4)cc3)C2)c1C(F)(F)F (single isomer, unassigned) [Example 34, 1-[1-[5-Chloro-2-[4-[4-[[1-(trifluoromethyl)cyclopropyl]methyl]piperazin-1-yl]phenyl]phenyl]-3-piperidyl]-5-(trifluoromethyl)pyrazole-4-carboxylic acid hydrochloride] | 10.0 | 40.5 | – |

Continued, values first:

| MEC [nM] | EC50 [nM] | MEC (hydrochloride) [nM] | Compound |
| --- | --- | --- | --- |
| 3.0 | 26.5 | – | O=C(O)c1cnn(C2CCCN(c3cc(Cl)ccc3-c3ccc(N4CCN(CC5CCC5)CC4)cc3)C2)c1C(F)(F)F (single isomer, unassigned) [Example 19, 1-[1-[5-Chloro-2-[4-[4-(cyclobutylmethyl)piperazin-1-yl]phenyl]phenyl]-3-piperidyl]-5-(trifluoromethyl)pyrazole-4-carboxylic acid hydrochloride] |
| – | 27 | 3.0 | O=C(O)c1cnn(C2CCCN(c3cc(Cl)ccc3-c3ccc(N4CCN(CC5CC(F)(F)C5)CC4)cc3)C2)c1C(F)(F)F (single isomer, unassigned) [Example 21, 1-[1-[5-Chloro-2-[4-[4-[(3,3-difluorocyclobutyl)methyl]piperazin-1-yl]phenyl]phenyl]-3-piperidyl]-5-(trifluoromethyl)pyrazole-4-carboxylic acid hydrochloride] |
| 3.0 | 8.9 | – | O=C(O)c1cnn(C2CCCN(c3cc(Cl)ccc3-c3ccc(N4CCN(CC5CC56CC6)CC4)cc3)C2)c1C(F)(F)F (single isomer, unassigned) [Example 30, 1-[1-[5-Chloro-2-[4-[4-(spiro[2.2]pentan-2-ylmethyl)piperazin-1-yl]phenyl]phenyl]-3-piperidyl]-5-(trifluoromethyl)pyrazole-4-carboxylic acid hydrochloride] |
| – | 9.3 | 3.0 | O=C(O)c1cnn(C2CCCN(c3cc(Cl)ccc3-c3ccc(N4CCN(CC5CC5C(F)(F)F)CC4)cc3)C2)c1C(F)(F)F (single isomer, unassigned) [Example 32, 1-[1-[5-Chloro-2-[4-[4-[[2-(trifluoromethyl)cyclopropyl]methyl]piperazin-1-yl]phenyl]phenyl]-3-piperidyl]-5-(trifluoromethyl)pyrazole-4-carboxylic acid hydrochloride] |
| – | 37.5 | 10.0 | O=C(O)c1cnn(C2CCCN(c3cc(Cl)ccc3-c3ccc(N4CCN(CC5CC5C(F)(F)F)CC4)cc3)C2)c1C(F)(F)F (single isomer, unassigned) [Example 33, 1-[1-[5-Chloro-2-[4-[4-[[2-(trifluoromethyl)cyclopropyl]methyl]piperazin-1-yl]phenyl]phenyl]-3-piperidyl]-5-(trifluoromethyl)pyrazole-4-carboxylic acid hydrochloride] |
| 3.0 | 17.5 | – | O=C(O)c1cnn(C2CCCN(c3cc(Cl)ccc3-c3ccc(N4CCN(CCOC(F)(F)F)CC4)cc3)C2)c1C(F)(F)F (single isomer, unassigned) [Example 35, 1-[1-[5-Chloro-2-[4-[4-[2-(trifluoromethoxy)ethyl]piperazin-1-yl]phenyl]phenyl]-3-piperidyl]-5-(trifluoromethyl)pyrazole-4-carboxylic acid hydrochloride] |
| 10.0 | 35.5 | – | CC(=O)N1CCN(c2ccc(-c3ccc(Cl)cc3N3CCCC(n4ncc(C(=O)O)c4C(F)(F)F)C3)cc2)CC1 (single isomer, unassigned) [Example 36, 1-[1-[2-[4-(4-Acetylpiperazin-1-yl)phenyl]-5-chloro-phenyl]-3-piperidyl]-5-(trifluoromethyl)pyrazole-4-carboxylic acid] |
| 3.0 | 15.5 | – | CCC(=O)N1CCN(c2ccc(-c3ccc(Cl)cc3N3CCCC(n4ncc(C(=O)O)c4C(F)(F)F)C3)cc2)CC1 (single isomer, unassigned) [Example 37, 1-[1-[5-Chloro-2-[4-(4-propanoylpiperazin-1-yl)phenyl]phenyl]-3-piperidyl]-5-(trifluoromethyl)pyrazole-4-carboxylic acid] |
